Data: patent US10214546B2, “Btk inhibitors” (MERCK SHARP & DOHME CORP., priority 2014, dated 2019)
Like-named read-outs stand apart in the source and are kept apart here.

How the values were obtained:
[1] = molecular target: BTK enzyme (recombinant full-length BTK, hBTK) (Homo sapiens (Human), UniProt Q06187); assay: BTK enzymatic activity LANCE TR-FRET assay; format: biochemical; conditions: 50 pM hBTK, 25 μM ATP, 2 μM biotin-A5-peptide; compound range 1 μM to 0.017 nM; read-out: BTK binding IC50
[2] = tested on: adenosine uptake into HeLa cells; assay: [3H]Adenosine uptake assay in HeLa cells; format: cell-based; conditions: [3H]adenosine accumulation in HeLa cells, compound range 10 μM to 0.032 nM, read-out: ADU inhibition IC50
In short: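 HeLa cells in HBSS + 5% FBS were preincubated 30 min at ambient temperature with compound (ten-point 1:3 series, 10 µM–[…] final), then given [3H]adenosine (added as a 500 nM solution) for 60 min. Cell-associated label was read by scintillating-plate proximity counting; IC50 from 4-parameter fit of cps versus log concentration.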

Sequence of BTK enzyme (recombinant full-length BTK, hBTK) (Q06187 whole entry): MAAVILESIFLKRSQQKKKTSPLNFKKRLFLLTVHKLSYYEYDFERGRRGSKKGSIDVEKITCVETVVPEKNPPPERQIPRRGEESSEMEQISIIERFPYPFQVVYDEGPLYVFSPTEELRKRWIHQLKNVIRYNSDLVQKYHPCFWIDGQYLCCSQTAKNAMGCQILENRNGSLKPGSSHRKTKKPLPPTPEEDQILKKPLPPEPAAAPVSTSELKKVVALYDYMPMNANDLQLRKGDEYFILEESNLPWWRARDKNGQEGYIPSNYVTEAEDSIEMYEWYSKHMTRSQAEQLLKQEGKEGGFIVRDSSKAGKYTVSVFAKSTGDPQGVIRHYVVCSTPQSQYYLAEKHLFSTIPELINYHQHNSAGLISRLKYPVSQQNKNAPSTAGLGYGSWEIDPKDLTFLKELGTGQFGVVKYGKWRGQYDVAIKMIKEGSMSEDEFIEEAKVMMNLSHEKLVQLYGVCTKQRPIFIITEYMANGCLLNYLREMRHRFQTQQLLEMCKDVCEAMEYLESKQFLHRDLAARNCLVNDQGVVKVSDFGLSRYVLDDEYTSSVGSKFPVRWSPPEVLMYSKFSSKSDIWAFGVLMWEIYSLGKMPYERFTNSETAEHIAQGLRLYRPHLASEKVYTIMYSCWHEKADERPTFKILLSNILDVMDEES

| Structure (SMILES) | IC50 [1] [nM] | IC50 [2] [nM] | IC50 ([2]; Homo sapiens, HeLa) [nM] |
| --- | --- | --- | --- |
| CCOc1cc(C(C)(O)c2cccc(C)c2)ccc1-c1nc([C@@H]2CC[C@H]3CCC(=O)N3C2)n2ccnc(N)c12 (stereo partly drawn) [Example 168, (6R,8aS)-6-(8-amino-1-{2-ethoxy-4-[1-hydroxy-1-(3-methylphenyl)ethyl]phenyl}imidazo[1,5-a]pyrazin-3-yl)hexahydroindolizin-3(2H)-one] | 60.3 | 3650 | – |
| C[C@@](O)(c1ccc(-c2nc([C@H]3CN4C(=O)CC[C@@H]4CO3)n3ccnc(N)c23)cc1)c1cccc(C(F)(F)F)c1 [Example 169, (3R,8aR)-3-[8-amino-1-(4-{(1R)-1-hydroxy-1-[3-(trifluoromethyl)phenyl]ethyl}phenyl)imidazo[1,5-a]pyrazin-3-yl]hexahydro-6H-pyrrolo[2,1-c][1,4]oxazin-6-one] | 7.2 | – | 4530 |
| C[C@@](O)(c1ccc(-c2nc([C@@H]3CC[C@H]4N(C3)C(=O)CCC4(F)F)n3ccnc(N)c23)cc1)c1cccc(C(F)(F)F)c1 [Example 170, (7R,9aR)-7-[8-amino-1-(4-{(1R)-1-hydroxy-1-[3-(trifluoromethyl)phenyl]ethyl}phenyl)imidazo [1,5-a]pyrazin-3-yl]-1,1-difluorooctahydro-4H-quinolizin-4-one] | 556 | – | 7110 |
| C[C@@](O)(c1ccc(-c2nc([C@H]3CC[C@@H]4N(C3)C(=O)CCC4(F)F)n3ccnc(N)c23)cc1)c1cccc(C(F)(F)F)c1 [Example 171, (7S,9aS)-7-[8-amino-1-(4-{(1R)-1-hydroxy-1-[3-(trifluoromethyl)phenyl]ethyl}phenyl)imidazo [1,5-a]pyrazin-3-yl]-1,1-difluorooctahydro-4H-quinolizin-4-one] | 89 | – | 7960 |
| C[C@@](O)(c1ccc(-c2nc([C@@H]3CC[C@@H]4[C@@H](C(F)(F)F)CC(=O)N4C3)n3ccnc(N)c23)cc1)c1cccc(C(F)(F)F)c1 [Example 172, (1S,6R,8aR)-6-[8-amino-1-(4-{(1R)-1-hydroxy-1-[3-(trifluoromethyl)phenyl]ethyl}phenyl)imidazo [1,5-a]pyrazin-3-yl]-1-(trifluoromethyl) hexahydroindolizin-3(2H)-one] | 258 | – | 5320 |
| C[C@@](O)(c1ccc(-c2nc([C@@H]3CC[C@H]4CCC(=O)N4C3)n3c(C(F)(F)F)cnc(N)c23)cc1)c1cccc(C(F)(F)F)c1 [Example 173, (6R,8aS)-6-[8-amino-1-(4-{(1R)-1-hydroxy-1-[3-(trifluoromethyl)phenyl]ethyl}phenyl)-5-(trifluoromethyl)imidazo [1,5-a]pyrazin-3-yl]hexahydroindolizin-3(2H)-one] | 22.2 | – | 5110 |
| C[C@@](O)(c1ccc(-c2nc([C@H]3CC[C@@H]4COCC(=O)N4C3)n3c(Cl)cnc(N)c23)cc1)c1cccc(C(F)(F)F)c1 [Example 174, (7S,9aR)-7-[8-amino-5-chloro-1-(4-{(1R)-1-hydroxy-1-[3-(trifluoromethyl)phenyl]ethyl}phenyl)imidazo [1,5-a]pyrazin-3-yl]hexahydropyrido[2,1-c][1,4]oxazin-4(3H)-one] | 85.7 | – | 1160 |
| C[C@@](O)(c1ccc(-c2nc([C@@H]3CC[C@H]4COCC(=O)N4C3)n3c(Cl)cnc(N)c23)cc1)c1cccc(C(F)(F)F)c1 [Example 175, (7R,9aS)-7-(8-amino-5-chloro-1-(4-{(1R)-1-hydroxy-1-[3-(trifluoromethyl)phenyl]ethyl}phenyl)imidazo [1,5-a]pyrazin-3-yl]hexahydropyrido[2,1-c][1,4]oxazin-4(3H)-one] | 1.5 | – | 1380 |
| C[C@@](O)(c1ccc(-c2nc([C@H]3CN4C(=O)COC[C@@H]4CO3)n3ccnc(N)c23)cc1)c1cccc(C(F)(F)F)c1 [Example 176, (7R,9aR)-7-[8-amino-1-(4-{(1R)-1-hydroxy-1-[3-(trifluoromethyl)phenyl]ethyl}phenyl)imidazo [1,5-a]pyrazin-3-yl]tetrahydro-1H-[1,4]oxazino[3,4-c][1,4]oxazin-4(3H)-one] | 7.5 | – | 4270 |
| CC1(C)CC(=O)N2C[C@H](c3nc(-c4ccc([C@@](C)(O)c5cccc(C(F)F)c5)cc4)c4c(N)nccn34)CC[C@H]21 [Example 177, (6R,8aS)-6-[8-amino-1-(4-{(1R)-1-[3-(difluoromethyl)phenyl]-1-hydroxyethyl}phenyl)imidazo[1,5-a]pyrazin-3-yl]-1,1-dimethylhexahydroindolizin-3(2H)-one] | 0.1 | – | 1830 |
| C[C@@](O)(c1ccc(-c2nc([C@@H]3CC[C@H]4C(C(F)(F)F)CC(=O)N4C3)n3ccnc(N)c23)cc1)c1cccc(C(F)(F)F)c1 (stereo partly drawn) [Example 179, (1R,6R,8aS)-6-[8-amino-1-(4-{(1R)-1-hydroxy-1-[3-(trifluoromethyl)phenyl]ethyl}phenyl)imidazo [1,5-a]pyrazin-3-yl]-1-(trifluoromethyl) hexahydroindolizin-3(2H)-one] | 3.5 | – | 3300 |
| C[C@@](O)(c1ccc(-c2nc([C@@H]3CC[C@H]4C(C(F)(F)F)CC(=O)N4C3)n3ccnc(N)c23)cc1)c1cccc(C(F)(F)F)c1 (stereo partly drawn) [Example 180, (1R,6R,8aS)-6-[8-amino-1-(4-{(1R)-1-hydroxy-1-[3-(trifluoromethyl)phenyl]ethyl}phenyl)imidazo [1,5-a]pyrazin-3-yl]-1-(trifluoromethyl) hexahydroindolizin-3(2H)-one] | 4.2 | 2460 | – |
| CC1(C)C[C@@H]2CC[C@@H](c3nc(-c4ccc([C@@](C)(O)c5cccc(C(F)F)c5)cc4)c4c(N)nccn34)CN2C1=O [Example 181, (6R,8aS)-6-[8-amino-1-(4-{(1R)-1-[3-(difluoromethyl)phenyl]-1-hydroxyethyl}phenyl)imidazo[1,5-a]pyrazin-3-yl]-2,2-dimethylhexahydroindolizin-3(2H)-one] | 0.2 | – | 3620 |
| C[C@@](O)(c1ccc(-c2nc([C@@H]3CC[C@H]4C(C(F)(F)F)CC(=O)N4C3)n3ccnc(N)c23)cc1)c1cccc(C(F)F)c1 (stereo partly drawn) [Example 182, (1R,6R,8aS)-6-[8-amino-1-(4-{(1R)-1-[3-(difluoromethyl)phenyl]-1-hydroxyethyl}phenyl)imidazo[1,5-a]pyrazin-3-yl]-1-(trifluoromethyl) hexahydroindolizin-3(2H)-one] | 0.43 | – | 2800 |
| CC(O)(c1cccc(C(F)(F)F)c1)c1ccc(-c2nc([C@@H]3CC[C@H]4CCC(=O)N4C3)n3c(F)cnc(N)c23)c(F)c1 (stereo partly drawn) [Example 183, (6R,8aS)-6-[8-amino-5-fluoro-1-(2-fluoro-4-{1-hydroxy-1-[3-(trifluoromethyl)phenyl]ethyl}phenyl)imidazo [1,5-a]pyrazin-3-yl]hexahydroindolizin-3(2H)-one] | 324 | 561 | – |
| C[C@@](O)(c1ccc(-c2nc([C@@H]3CC[C@H]4C(C(F)(F)F)CC(=O)N4C3)n3ccnc(N)c23)cc1)c1cccc(C(F)F)c1 (stereo partly drawn) [Example 184, (1R,6R,8aS)-6-[8-amino-1-(4-{(1R)-1-[3-(difluoromethyl)phenyl]-1-hydroxyethyl}phenyl)imidazo[1,5-a]pyrazin-3-yl]-1-(trifluoromethyl) hexahydroindolizin-3(2H)-one] | 1.4 | 2660 | – |
| CC(O)(c1cccc(C(F)(F)F)c1)c1ccc(-c2nc([C@@H]3CC[C@H]4CCC(=O)N4C3)n3c(F)cnc(N)c23)c(F)c1 (stereo partly drawn) [Example 185, (6R,8aS)-6-[8-amino-5-fluoro-1-(2-fluoro-4-{1-hydroxy-1-[3-(trifluoromethyl)phenyl]ethyl}phenyl)imidazo [1,5-a]pyrazin-3-yl]hexahydroindolizin-3(2H)-one] | 5 | 2390 | – |
| CCOc1cc([C@@](C)(O)c2cccc(C(F)(F)F)c2)ccc1-c1nc([C@@H]2CC[C@@H]3N(C2)C(=O)CC3(C)C)n2ccnc(N)c12 [Example 186, (6R,8aS)-6-[8-amino-1-(2-ethoxy-4-{(1S)-1-hydroxy-1-[3-(trifluoromethyl)phenyl]ethyl}phenyl)imidazo [1,5-a]pyrazin-3-yl]-1,1-dimethylhexahydroindolizin-3(2H)-one] | 1.3 | – | 3080 |
| CC1(C)OC(=O)N2C[C@H](c3nc(-c4ccc([C@@](C)(O)c5cccc(C(F)F)c5)cc4)c4c(N)nccn34)OC[C@H]21 [Example 187, (6R,8aS)-6-[8-amino-1-(4-{(1R)-1-[3-(difluoromethyl)phenyl]-1-hydroxyethyl}phenyl)imidazo[1,5-a]pyrazin-3-yl]-1,1-dimethyltetrahydro-1H-[1,3]oxazolo[4.3-c][1,4]oxazin-3-one] | 2.8 | – | 2640 |
| C[C@@](O)(c1ccc(-c2nc([C@@H]3CC[C@@H]4N(C3)C(=O)CC43CC3)n3ccnc(N)c23)cc1)c1cccc(C(F)(F)F)c1 [Example 188, (6′R,8a′S)-6′-[8-amino-1-(4-{(1R)-1-hydroxy-1-[3-(trifluoromethyl)phenyl]ethyl}phenyl)imidazo [1,5-a]pyrazin-3-yl]tetrahydro-5′H-spiro[cyclopropane-1,1′-indolizin]-3′(2′H)-one] | 1.2 | – | 2500 |
| C[C@@](O)(c1ccc(-c2nc([C@@H]3CC[C@@H]4N(C3)C(=O)CC43CC3)n3ccnc(N)c23)cc1)c1cccc(C(F)F)c1 [Example 189, (6′R,8a′S)-6′-[8-amino-1-(4-{(1R)-1-[3-(difluoromethyl)phenyl]-1-hydroxyethyl}phenyl)imidazo[1,5-a]pyrazin-3-yl]tetrahydro-5′H-spiro[cyclopropane-1,1′-indolizin]-3′(2′H)-one] | 0.17 | – | 2080 |
